The values that follow come from EP4707275A1, “NOVEL COMPOUND COMPRISING N-METHYLPIPERAZINE ETHANOL CARBAMATE STRUCTURE AND USE THEREOF” (Korea Institute of Radiological & Medical Sciences, priority 2023, dated 2024).

Assay [1] relates to radiation-induced pulmonary fibrosis. Kind of assay: Inhibitory effect on radiation-induced pulmonary fibrosis in mice (Micro-CT, H&E and Masson's Trichrome staining). The format is in vivo, C57BL/6 mice. As to conditions: 2 weeks after radiation exposure (SBRT 90 Gy), oral, nintedanib 60 mg/kg once daily, vs untreated group. On the procedure:
One hour before stereotactic body radiation therapy (SBRT; 90 Gy, 4 mm collimator), DCTP and nintedanib, an FDA-approved drug known to inhibit pulmonary fibrosis, were orally administered to seven-week-old male C57BL/6 mice. The degree of pulmonary fibrosis and the inhibitory effect on radiation-induced lung injury were observed two weeks after radiation exposure. The DCTP drug was administered at a dose of 30 mg/kg, and nintedanib was administered once daily (o.d.) at a dose of 60 mg/kg. In addition, to analyze the degree of inflammatory response and the degree of fibrosis two weeks after radiation exposure, H&E staining and Masson's Trichrome staining were performed, and the results are shown in FIG. 5. One hour prior to stereotactic body radiation therapy (SBRT; 90 Gy, 4 mm collimator), PXDP and nintedanib, an FDA-approved drug known to inhibit pulmonary fibrosis, were orally administered to seven-week-old male C57BL/6 mice. The degree of pulmonary fibrosis and the inhibitory effect on radiation-induced lung injury were observed two weeks after radiation exposure. The PXDP drug was administered at a dose of 100 mg/kg, and nintedanib was administered once daily (o.d.) at a dose of 60 mg/kg. To analyze the degree of inflammatory response and the degree of fibrosis 2 weeks after radiation exposure, H&E staining and Masson's Trichrome staining were performed, and the results are shown in FIG. 11.

The test system of assay [2] is idiopathic pulmonary fibrosis induced by bleomycin. Put plainly: Inhibitory effect on idiopathic pulmonary fibrosis induced by bleomycin in mice (Micro-CT, H&E and Masson's Trichrome staining, survival). The assay is classed as in vivo, C57BL/6 mice. As to conditions: oral once daily for two weeks from day 14, nintedanib 60 mg/kg, vs untreated group; for degree of fibrosis (Micro-CT imaging): 4 weeks after bleomycin 1.5 U/kg; for degree of inflammation and fibrosis (H&E and Masson's Trichrome staining) / survival rate: bleomycin 1.5 U/kg; for survival rate: Example 5, FIG. 9. On the procedure: Each drug was administered starting 14 days after the administration of bleomycin. The drug was orally administered at a dose of 20 mg/kg once daily for two weeks (a total of 13 administrations). The control drug, nintedanib, was administered at a dose of 60 mg/kg, and the co-administration group was orally administered nintedanib (60 mg/kg) together with DCTP (20 mg/kg) once daily for two weeks (a total of 13 administrations).
The results of H&E and Masson's Trichrome staining performed to evaluate the degree of inflammation and fibrosis are shown in FIG. 3.
Each drug was administered starting 14 days after the administration of bleomycin. Nintedanib and PXDP were each orally administered at a dose of 60 mg/kg once daily for two weeks (a total of 13 administrations), and the group treated with the combination was orally administered nintedanib (60 mg/kg) together with PXDP (60 mg/kg) once daily for two weeks (a total of 13 administrations).
The results of H&E and Masson's Trichrome staining performed to evaluate the degree of inflammation and fibrosis are shown in FIG. 8.
In addition, the mouse survival rate was compared in FIG. 9.

[3] abbreviates: Example 3, FIG. 5, DCTP 30 mg/kg.
Setting [4] is: Example 5, FIG. 7, PXDP 60 mg/kg.
The mark [5] stands for this setting: Example 5, FIG. 8, PXDP 60 mg/kg.
Setting [6] is: Example 6, FIG. 10, PXDP 100 mg/kg.
Where [7] appears, read: Example 6, FIG. 11, PXDP 100 mg/kg.

For `COc1cc2ncnc(N(C(=O)OCCN3CCN(C)CC3)c3ccc(F)c(Cl)c3)c2cc1NC(=O)/C=C/CN1CCCCC1` [DCTP, 2-(4-methylpiperazin-1-yl)ethyl (E)-(3-chloro-4-fluorophenyl)(7-methoxy-6-(4-(piperidin-1-yl)but-2-enamido)quinazolin-4-yl)carbamate], in assay [1] (setting [3]), the “degree of inflammation and degree of fibrosis (H&E and Masson's Trichrome staining)” value is “reduction in fibrosis and inflammation in the lungs”.

For `CN1CCN(CCOC(=O)N(Cc2ccc(C(F)(F)F)nc2)c2ccc(Cc3c[nH]c4ncc(Cl)cc34)cn2)CC1` [PXDP, 2-(4-methylpiperazin-1-yl)ethyl (5-((5-chloro-1H-pyrrolo[2,3-b]pyridin-3-yl)methyl)pyridin-2-yl)((6-(trifluoromethyl)pyridin-3-yl)methyl)carbamate], the “degree of fibrosis (Micro-CT imaging)” value in assay [2] (setting [4]) is on record as “reduction in the degree of fibrosis”; in assay [1] (setting [6]), “reduction in the degree of fibrosis”; in assay [1] (Example 6, FIG. 10, PXDP 100 mg/kg, listed as PXPD), “superior to that of nintedanib”. Moreover, the “degree of inflammation and fibrosis (H&E and Masson's Trichrome staining)” value in assay [2] (setting [5]) is “alleviation of pulmonary fibrosis and inflammation”. Further, in assay [2] (PXDP 60 mg/kg), the survival rate entry was “survival rate increased”. Moreover, the “degree of inflammation and degree of fibrosis (H&E and Masson's Trichrome staining)” value in assay [1] (setting [7]) is “alleviation of fibrosis and inflammation in the lungs”.

For `COC(=O)c1ccc2c(c1)NC(=O)/C2=C(\Nc1ccc(N(C)C(=O)CN2CCN(C)CC2)cc1)c1ccccc1` [nintedanib], the “degree of fibrosis (Micro-CT imaging)” value in assay [2] (Example 2, FIG. 2, DCTP 20 mg/kg) was “reduction in the degree of fibrosis”; in assay [2] (setting [4]), “reduction in the degree of fibrosis”; in assay [1] (Example 3, FIG. 4, DCTP 30 mg/kg), “reduction in the degree of fibrosis”; in assay [1] (setting [6]), “reduction in the degree of fibrosis”. Also, the “degree of inflammation and fibrosis (H&E and Masson's Trichrome staining)” value in assay [2] (Example 2, FIG. 3, DCTP 20 mg/kg) is “alleviation of pulmonary fibrosis and inflammation”; in assay [2] (setting [5]) it was “alleviation of pulmonary fibrosis and inflammation”. The survival rate result in assay [2] (PXDP 60 mg/kg) was “survival rate increased”. For the same compound, the “degree of inflammation and degree of fibrosis (H&E and Masson's Trichrome staining)” value in assay [1] (setting [3]) was “reduction in fibrosis and inflammation in the lungs”; in assay [1] (setting [7]), “alleviation of fibrosis and inflammation in the lungs”.
